The test deals with Saccharomyces cerevisiae. The test can be described thus: Antifungal activity against Saccharomyces cerevisiae. The test is classed as functional.

Each structure is given as a SMILES string.

Experimental findings from ChEMBL document CHEMBL1144095, “A new labdane diterpenoid from Renealmia alpinia collected in the Suriname rainforest” (1999) are described below.

As for `C=C1CC[C@H]2C(C)(C)CCC[C@]2(C)[C@H]1CC1OC(O)C=C1C(=O)O` (stereo partly specified), the IC12 is 150 µg/mL.
